System: ARPE-19 cells stably expressing XBP1 (a.a. 1-376)
Assay: Cellular XBP1 splicing assay (NanoLuc luciferase, thapsigargin)
Type: cell-based
Details: thapsigargin 150 nM
Protocol: Cellular XBP1 Splicing Assay
ARPE-19 cells stably expressing XBP1 (a.a. 1-376) with nano-luciferase gene sequence linked so it is in frame when XBP1 is spliced, were cultured in F12 media, 10% FBS, 0.044% sodium bicarbonate, 150 μg/ml hygromycin B and seeded for assays at 5,000 cells in 384 well plates in culture media without hygromycin B and incubated at 37° C./5% CO2. After overnight incubation test compounds were added to the cell plate in a 10-point ½ log dilution series in duplicate (final DMSO concentration 0.117%). After further incubation of 30 minutes thapsigargin was added (final concentration 150 nM) and then another 4 hour incubation. A NanoLuc luciferase assay (Promega) was used according to the manufacturer's instructions to detect the luciferase and luminescence measured on a luminometer (EnVision, PerkinElmer). IC50 values calculated by fitting a sigmoidal curve to percent inhibition of control of compound concentration.

| Structure (SMILES) | IC50 (4 hour) | IC50 (Homo sapiens, ARPE-19, 4 h) |
| --- | --- | --- |
| Nc1ncc(C2=CCC(NC3COC3)CC2)c2c1c(-c1ccc(NS(=O)(=O)Cc3ccccc3F)c(F)c1)nn2C1CC1 (single isomer, unassigned) [Compound B20, N-(4-(4-amino-1-cyclopropyl-7-(4-(oxetan-3-ylamino)cyclohex-1-en-1-yl)-1H-pyrazolo[4,3-c]pyridin-3-yl)-2-fluorophenyl)-1-(2-fluorophenyl)methanesulfonamide] | 38 nM |  |
| Nc1ncc(C2=CCC(NC3COC3)CC2)c2c1c(-c1ccc(NS(=O)(=O)Cc3ccccc3F)c(F)c1)nn2C1CC1 (single isomer, unassigned) [Compound B21, N-(4-(4-amino-1-cyclopropyl-7-(4-(oxetan-3-ylamino)cyclohex-1-en-1-yl)-1H-pyrazolo[4,3-c]pyridin-3-yl)-2-fluorophenyl)-1-(2-fluorophenyl)methanesulfonamide] | 11 nM |  |
| CCn1nc(-c2ccc(NS(=O)(=O)Cc3ccccc3Cl)cc2)c2c(N)ncc(C3=CCC(NC4COC4)CC3)c21 (single isomer, unassigned) [Compound B25, N-(4-(4-amino-1-ethyl-7-(4-(oxetan-3-ylamino)cyclohex-1-en-1-yl)-1H-pyrazolo[4,3-c]pyridin-3-yl)phenyl)-1-(2-chlorophenyl)methanesulfonamide] | 170 nM |  |
| CCn1nc(-c2ccc(NS(=O)(=O)c3cc(Cl)ccc3F)c(F)c2)c2c(N)ncc(C3=CCC(NC4COC4)CC3)c21 (single isomer, unassigned) [Compound B39, N-(4-(4-amino-1-ethyl-7-(4-(oxetan-3-ylamino)cyclohex-1-en-1-yl)-1H-pyrazolo[4,3-c]pyridin-3-yl)-2-fluorophenyl)-5-chloro-2-fluorobenzenesulfonamide] | 220 nM |  |
| CC(C)n1nc(-c2ccc(NS(=O)(=O)c3ccccc3Cl)c(F)c2)c2c(N)ncc(C3=CCC(NC4COC4)CC3)c21 (single isomer, unassigned) [Compound B56, N-(4-(4-amino-1-isopropyl-7-(4-(oxetan-3-ylamino)cyclohex-1-en-1-yl)-1H-pyrazolo[4,3-c]pyridin-3-yl)-2-fluorophenyl)-2-chlorobenzenesulfonamide] | 200 nM |  |
| CC(C)n1nc(-c2ccc(NS(=O)(=O)c3ccccc3Cl)c(F)c2)c2c(N)ncc(C3=CCC(NC4COC4)CC3)c21 (single isomer, unassigned) [Compound B57, N-(4-(4-amino-1-isopropyl-7-(4-(oxetan-3-ylamino)cyclohex-1-en-1-yl)-1H-pyrazolo[4,3-c]pyridin-3-yl)-2-fluorophenyl)-2-chlorobenzenesulfonamide] | 20 nM |  |
| COCCN[C@H]1CC[C@H](c2cnc(N)c3c(-c4cc(F)c(NS(=O)(=O)c5cccc(F)c5)cc4F)nn(C(C)C)c32)CC1 [Compound A33, N-(4-(4-amino-1-isopropyl-7-((1r,4r)-4-((2-methoxyethyl)amino)cyclohexyl)-1H-pyrazolo[4,3-c]pyridin-3-yl)-2,5-difluorophenyl)-3-fluorobenzenesulfonamide] |  | 49 nM |
| COCCN[C@H]1CC[C@H](c2cnc(N)c3c(-c4cc(F)c(NS(=O)(=O)c5cc(OC(F)(F)F)ccc5F)cc4F)nn(C(C)C)c32)CC1 [Compound A59, N-(4-(4-amino-1-isopropyl-7-((1r,4r)-4-((2-methoxyethyl)amino)cyclohexyl)-1H-pyrazolo[4,3-c]pyridin-3-yl)-2,5-difluorophenyl)-2-fluoro-5-(trifluoromethoxy)benzenesulfonamide] |  | 44 nM |
| CCCOc1ccc(F)c(S(=O)(=O)Nc2cc(F)c(-c3nn(C(C)C)c4c3c(N)ncc4[C@H]3CC[C@H](NCCOC)CC3)cc2F)c1 [Compound A60, N-(4-(4-amino-1-isopropyl-7-((1r,4r)-4-((2-methoxyethyl)amino)cyclohexyl)-1H-pyrazolo[4,3-c]pyridin-3-yl)-2,5-difluorophenyl)-2-fluoro-5-propoxybenzenesulfonamide] |  | 16 nM |

Source: US20220153734A1, “Pyrazolopyridine Compounds For IRE1 Inhibition” (Optikira, LLC, priority 2019, published 2022)
